Values of other authors as cited in US20080124279A1, “Colonic delivery using Zn/pectin beads with a Eudragit coating” (priority 2006, published 2008).
Read-outs that look alike come from different tables or passages of the source.

Tests used:
L-1(wt) = L-1(wt) (Stenotrophomonas maltophilia, UniProt P52700)
IMP-1 = IMP-1 (Serratia marcescens, UniProt P52699)
VIM-2 = VIM-2 (Escherichia coli, UniProt Q5U7L7)

L-1(wt), sequence (P52700 34-290): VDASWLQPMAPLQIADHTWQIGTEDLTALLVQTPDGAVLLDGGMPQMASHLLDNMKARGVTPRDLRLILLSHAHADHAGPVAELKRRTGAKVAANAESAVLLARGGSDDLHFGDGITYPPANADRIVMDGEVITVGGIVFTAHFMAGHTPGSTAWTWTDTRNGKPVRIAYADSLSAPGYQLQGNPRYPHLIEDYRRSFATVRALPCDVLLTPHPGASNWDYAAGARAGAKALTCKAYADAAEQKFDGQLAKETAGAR
IMP-1, sequence (P52699 19-246 limits assumed): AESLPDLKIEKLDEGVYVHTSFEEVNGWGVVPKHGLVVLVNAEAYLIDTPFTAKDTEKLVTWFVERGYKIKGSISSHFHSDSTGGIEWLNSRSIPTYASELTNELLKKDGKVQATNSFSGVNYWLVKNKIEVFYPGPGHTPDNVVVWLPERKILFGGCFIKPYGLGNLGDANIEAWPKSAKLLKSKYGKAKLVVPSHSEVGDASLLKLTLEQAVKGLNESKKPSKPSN

Compound: CC1(C)S[C@@H]2[C@H](NC(=O)[C@H](N)c3ccccc3)C(=O)N2[C@H]1C(=O)O [Ampicillin]
- Kcat (L-1(wt)): 520 s⁻¹
- Km (L-1(wt)): 55 µM
- Kcat (IMP-1): 950 s⁻¹
- Km (IMP-1): 200 µM
- Km (VIM-2): 90 µM
- Kcat (FEZ-1): >5.5 s⁻¹
- Km (FEZ-1): > 5000 µM

Compound: CC1(C)S[C@@H]2[C@H](NC(=O)[C@H](NC(=O)N3CCNC3=O)c3ccccc3)C(=O)N2[C@H]1C(=O)O [Azlocillin]
- Kcat (VIM-2): 200 s⁻¹
- Km (VIM-2): 200 µM

Compound: C[C@H]1[C@H](NC(=O)/C(=N\OC(C)(C)C(=O)O)c2csc(N)n2)C(=O)N1S(=O)(=O)O [Aztreonam]
- Kcat (IMP-1): >0.01 s⁻¹
- Km (IMP-1): > 1000 µM
- Kcat (VIM-2): <0.01 s⁻¹
- Km (VIM-2): > 1000 µM

Compound: CC1(C)S[C@@H]2[C@H](NC(=O)Cc3ccccc3)C(=O)N2[C@H]1C(=O)O [Benzylpenicillin]
- Kcat (L-1(wt)): 600 s⁻¹
- Km (L-1(wt)): 38 µM
- Kcat (IMP-1): 320 s⁻¹
- Km (IMP-1): 520 µM
- Kcat (VIM-2): 56 s⁻¹
- Km (VIM-2): 49 µM
- Kcat (FEZ-1): 70 s⁻¹
- Km (FEZ-1): 590 µM

Compound: C[C@@H](O)[C@H]1C(=O)N2C(C(=O)[O-])=C(SC3Cn4cnc[n+]4C3)[C@H](C)[C@H]12 (stereo partly drawn) [Biapenem]
- Kcat (L-1(wt)): 134 s⁻¹
- Km (L-1(wt)): 32 µM
- Kcat (IMP-1): 160 s⁻¹
- Km (IMP-1): 28 µM
- Kcat (VIM-2): 8.5 s⁻¹
- Km (VIM-2): 15 µM
- Kcat (FEZ-1): 70 s⁻¹
- Km (FEZ-1): > 1000 µM

Compound: CC1(C)S[C@@H]2[C@H](NC(=O)C(C(=O)O)c3ccccc3)C(=O)N2[C@H]1C(=O)O (stereo partly drawn) [Cabenicillin]
- Kcat (VIM-2): 185 s⁻¹
- Km (VIM-2; read-out: Km): 205 µM
- Kcat (FEZ-1): 35 s⁻¹
- Km (FEZ-1): 1600 µM

Compound: NC(=O)OC[C@@H]1[C@H](NC(=O)/C(=N\OCC(=O)O)c2csc(N)n2)C(=O)N1S(=O)(=O)O [Carumonam]
- Kcat (IMP-1): >0.01 s⁻¹
- Km (IMP-1): > 1000 µM

Compound: CO/N=C(\C(=O)N[C@@H]1C(=O)N2C(C(=O)[O-])=C(C[N+]3(C)CCCC3)CS[C@H]12)c1csc(N)n1 [Cefepim]
- Kcat (IMP-1): 7 s⁻¹
- Km (IMP-1; read-out: Km): 11 µM
- Kcat (VIM-2): >40 s⁻¹
- Km (VIM-2; read-out: Km): > 400 µM
- Kcat (FEZ-1): >6 s⁻¹
- Km (FEZ-1): > 1000 µM

Compound: CO/N=C(\C(=O)N[C@@H]1C(=O)N2C(C(=O)O)=C(COC(C)=O)CS[C@H]12)c1csc(N)n1 [Cefotaxim]
- Kcat (L-1(wt)): 270 s⁻¹
- Km (L-1(wt)): 10 µM
- Kcat (IMP-1): 1.3 s⁻¹
- Km (IMP-1; read-out: Km): 4 µM
- Kcat (VIM-2): 70 s⁻¹
- Km (VIM-2; read-out: Km): 12 µM
- Kcat (FEZ-1): 165 s⁻¹
- Km (FEZ-1): 70 µM

Compound: CO[C@@]1(NC(=O)Cc2cccs2)C(=O)N2C(C(=O)O)=C(COC(N)=O)CS[C@@H]21 [Cefoxitin]
- Kcat (L-1(wt)): 1 s⁻¹
- Km (L-1(wt)): 3 µM
- Kcat (VIM-2): 15 s⁻¹
- Km (VIM-2): 13 µM

Compound: CO/N=C(\C(=O)N[C@@H]1C(=O)N2C(C(=O)[O-])=C(C[n+]3cccc4c3CCC4)CS[C@H]12)c1csc(N)n1 [Cefpirom]
- Kcat (IMP-1): 9 s⁻¹
- Km (IMP-1; read-out: Km): 14 µM
- Kcat (VIM-2): 180 s⁻¹
- Km (VIM-2; read-out: Km): 180 µM

Compound: CC(C)(O/N=C(\C(=O)N[C@@H]1C(=O)N2C(C(=O)[O-])=C(C[n+]3ccccc3)CS[C@H]12)c1csc(N)n1)C(=O)O [Ceftazidin]
- Kcat (IMP-1): 8 s⁻¹
- Km (IMP-1; read-out: Km): 44 µM
- Kcat (VIM-2): 3.6 s⁻¹
- Km (VIM-2; read-out: Km): 72 µM

Compound: CO/N=C(\C(=O)N[C@@H]1C(=O)N2C(C(=O)O)=C(COC(N)=O)CS[C@H]12)c1ccco1 [Cefuroxin]
- Kcat (VIM-2): 8 s⁻¹
- Km (VIM-2; read-out: Km): 20 µM

Compound: O=C(Cc1cccs1)N[C@@H]1C(=O)N2C(C(=O)[O-])=C(C[n+]3ccccc3)CS[C@H]12 [Cephaloridin]
- Kcat (IMP-1): 53 s⁻¹
- Km (IMP-1; read-out: Km): 22 µM
- Kcat (VIM-2): 140 s⁻¹
- Km (VIM-2; read-out: Km): 50 µM
- Kcat (FEZ-1): 16 s⁻¹
- Km (FEZ-1): 1000 µM

Compound: CC(=O)OCC1=C(C(=O)O)N2C(=O)[C@@H](NC(=O)Cc3cccs3)[C@H]2SC1 [Cephalothin]
- Kcat (L-1(wt)): 82 s⁻¹
- Km (L-1(wt)): 8.9 µM
- Kcat (IMP-1): 48 s⁻¹
- Kcat (VIM-2): 130 s⁻¹
- Km (VIM-2): 11 µM

Compound: O=C(O)[C@H]1/C(=C/CO)O[C@@H]2CC(=O)N21 [Clavulanic Acid]
- Kcat (L-1(wt)): 11 s⁻¹
- Km (L-1(wt)): 22 µM
- Kcat (FEZ-1): <0.01 s⁻¹
- Km (FEZ-1): > 1000 µM

Compound: C[C@@H](O)[C@H]1C(=O)N2C(C(=O)O)=C(SCCN=CN)C[C@H]12 [Imipenem]
- Km (L-1(wt)): 57 µM
- Km (IMP-1): 39 µM
- Km (VIM-2): 9 µM

Compound: C[C@@H](O)[C@H]1C(=O)N2C(C(=O)O)=C(S[C@@H]3CN[C@H](C(=O)N(C)C)C3)[C@H](C)[C@H]12 [Meropenem]
- Kcat (L-1(wt)): 157 s⁻¹
- Km (L-1(wt)): 15 µM
- Kcat (VIM-2): 5 s⁻¹
- Km (VIM-2): 2 µM

Compound: CC1(C)S[C@@H]2[C@H](NC(=O)[C@H](NC(=O)N3CCN(S(C)(=O)=O)C3=O)c3ccccc3)C(=O)N2[C@H]1C(=O)O [Mezlocillin]
- Kcat (VIM-2): 200 s⁻¹
- Km (VIM-2): 125 µM

Compound: CO[C@@]1(NC(=O)C(C(=O)O)c2ccc(O)cc2)C(=O)N2C(C(=O)O)=C(CSc3nnnn3C)CO[C@@H]21 (stereo partly drawn) [Moxalactam]
- Kcat (VIM-2): 90 s⁻¹
- Km (VIM-2): 55 µM
- Kcat (FEZ-1): 3 s⁻¹
- Km (FEZ-1): 18 µM

Compound: O=C(Cc1cccs1)N[C@@H]1C(=O)N2C(C(=O)O)=C(/C=C/c3ccc([N+](=O)[O-])cc3[N+](=O)[O-])CS[C@H]12 [Nitrocefin]
- Kcat (L-1(wt)): 41 s⁻¹
- Km (L-1(wt)): 4 µM
- Kcat (IMP-1): 63 s⁻¹
- Kcat (VIM-2): 770 s⁻¹
- Km (VIM-2): 18 µM
- Kcat (FEZ-1): 90 s⁻¹
- Km (FEZ-1): 100 µM

Compound: CCN1CCN(C(=O)N[C@@H](C(=O)N[C@@H]2C(=O)N3[C@@H]2SC(C)(C)[C@@H]3C(=O)O)c2ccccc2)C(=O)C1=O [Pipericillin]
- Kcat (VIM-2): 300 s⁻¹
- Km (VIM-2; read-out: Km): 125 µM
- Kcat (FEZ-1): 50 s⁻¹
- Km (FEZ-1): 4200 µM

Compound: CC1(C)[C@H](C(=O)O)N2C(=O)C[C@H]2S1(=O)=O [Sulbactam]
- Kcat (VIM-2): 23 s⁻¹
- Km (VIM-2; read-out: Km): 320 µM

Compound: C[C@]1(Cn2ccnn2)[C@H](C(=O)O)N2C(=O)C[C@H]2S1(=O)=O [Tazobactam]
- Kcat (VIM-2): 28 s⁻¹
- Km (VIM-2): 875 µM
- Kcat (FEZ-1): 40 s⁻¹
- Km (FEZ-1): 700 µM

Compound: CC1(C)S[C@@H]2[C@H](NC(=O)[C@H](C(=O)O)c3ccsc3)C(=O)N2[C@H]1C(=O)O [Ticarcillin]
- Kcat (IMP-1): 1.1 s⁻¹
- Km (IMP-1): 740 µM
- Kcat (VIM-2): 180 s⁻¹
- Km (VIM-2): 125 µM
- Kcat (FEZ-1): >65 s⁻¹
- Km (FEZ-1): > 5000 µM

Compound: CO[C@@]1(NC(=O)C(C(=O)O)c2ccsc2)C(=O)N2[C@@H](C(=O)O)C(C)(C)S[C@@H]21 (stereo partly drawn) [Timocillin]
- Km (IMP-1; read-out: Km): > 2000 µM
- Kcat (VIM-2): 7.7 s⁻¹
- Km (VIM-2; read-out: Km): 390 µM
